Measured values published in ChEMBL document CHEMBL3627640 (Bioorg Med Chem, 2015).

Biological target: T1, Mitogen-activated protein kinase kinase kinase 7 (Homo sapiens, UniProt O43318)
T1 sequence (O43318 whole entry): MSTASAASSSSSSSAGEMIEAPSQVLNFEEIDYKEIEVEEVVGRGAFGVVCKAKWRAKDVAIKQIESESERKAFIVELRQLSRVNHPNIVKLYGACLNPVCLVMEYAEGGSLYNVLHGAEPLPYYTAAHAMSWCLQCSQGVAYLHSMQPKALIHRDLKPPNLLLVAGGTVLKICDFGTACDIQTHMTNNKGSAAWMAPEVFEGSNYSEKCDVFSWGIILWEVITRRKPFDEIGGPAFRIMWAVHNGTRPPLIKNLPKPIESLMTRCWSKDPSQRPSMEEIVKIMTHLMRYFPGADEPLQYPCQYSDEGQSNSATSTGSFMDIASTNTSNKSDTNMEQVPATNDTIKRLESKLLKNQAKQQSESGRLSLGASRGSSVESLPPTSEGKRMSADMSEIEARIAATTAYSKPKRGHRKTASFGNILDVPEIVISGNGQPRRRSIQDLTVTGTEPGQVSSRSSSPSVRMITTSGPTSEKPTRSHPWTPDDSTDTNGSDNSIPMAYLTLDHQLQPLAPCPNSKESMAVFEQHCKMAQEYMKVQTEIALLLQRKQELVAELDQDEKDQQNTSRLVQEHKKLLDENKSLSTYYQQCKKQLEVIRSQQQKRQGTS
Experiment: Inhibition of TAK1 (unknown origin)

IC50 | SMILES
> 30 µM | COc1cc(O)c2c(c1)/C=C/C[C@@H]1OC(CC(=O)[C@H]1O)C[C@H](C)OC2=O
> 30 µM | COc1cc(O)cc2c1C(=O)O[C@@H](C)CCCCC/C=C/C(=O)C2
> 30 µM | C/C=C/C=C\C(=O)[C@@H](O)[C@@H](O)C/C=C/c1cc(OC)cc(OC)c1C(=O)OC

SMILES | IC50
COc1cc(O)c2c(c1)[C@H]1O[C@@H]1C[C@H](O)[C@H](O)C(=O)CCC[C@H](C)OC2=O | > 30 µM
COc1cc(O)c2c(c1)/C=C/C[C@H](O)[C@H](O)C(=O)CCC[C@H](C)OC2=O | 2.6 µM
